Data as given in patent US6020480A, “Caged NADP and NAD” (The Regents of the University of California, priority 1997, dated 2000).

Assays:
[1] = Rates of photorelease from decay of the aci-nitro anions after photolysis; assay type: physicochemical
Experimental: The decay of aci-nitro intermediates was monitored at 402 nm or 418 nm with an Osram 50-W tungsten halogen lamp following excitation at 355 nm with a 55 mJ 8-ns pulse. Samples were prepared with 50 mM phosphate buffer, pH 7.0 or pH 6.0. […] Kinetic analysis was made by nonlinear, least-squares computer iteration. The averages of three trials are reported.

[2] = target: T1, IDH, isocitrate dehydrogenase (Escherichia coli) (Escherichia coli, UniProt P08200); test: Crystallographic analysis of caged compounds soaked into IDH crystals; assay type: binding; settings: 250 mM soak
T1 construct: made in house
From the text: IDH was purified and crystallized as described previously by Reeves, H. C., Daumy, G. O., Lin, C. C., and Houston, M. (1972) Biochim. Biophys. Acta 258, 27-39; LaPorte, D. C., Thorsness, P. E., and Koshland, D. E., Jr. (1985) J. Biol. Chem. 260, 10563-10568; Hurley, J. H., Thorsness, P. E., Ramalingam, V., Helmers, N. H., Koshland, D. E., Jr., and Stroud, R. M. (1989) Proc. Natl. Acad. Sci. U.S.A 86, 8635-8639; and Stoddard, B. L., Dean, A., and Koshland, D. E., Jr. (1993) Biochemistry 32, 9310-9316.
The crystals were 0.5 to 1.5 mm along their longest edges, with a shorter third dimension of 0.2 to 0.3 mm; the crystals belong to space group P43 21 2. The unit cell dimensions prior to photolysis and after binding liberated substrate consistently refined to values within 0.5% of the previously published lengths during data processing.
A total of six crystallographic data sets were collected for this study. The structure of the enzyme was determined prior to photolysis after soaking with each compound, both in the presence and absence of bound isocitrate/Mg^+2. The structure of the bound photolysis product was also determined for both caged compounds in the absence of isocitrate/Mg^+2.
For each experiment, a crystal was transferred to 0.5 mL of a stabilization solution (generally 10% higher ammonium sulfate than that used to grow the crystals, buffered at pH 7.0 with HEPES) and soaked overnight in the dark with 250 mM of either 1 or 3. These experiments were performed for each compound in the presence and absence of 50 mM isocitrate and MgSO4. To protect the crystal from oxidative degradation after photolysis by the nitroso photoproducts, β-mercaptoethanol (10 mM) and DTT (10 mM) were also added to the mother liquor. The crystals were mounted under safe-light in quartz capillaries with mother liquor at either end of the capillary. The mount was sealed with mineral oil and paraffin wax. Initial data were collected at room temperature in the dark on an RAXIS imaging plate area detector with a Rigaku RU-200 rotating anode X-ray generator operating at 50 kV, 80 mA. A complete data set was collected from each crystal to 2.5 Å resolution using 20 1.5° rotations at 30 minutes per frame, followed by an additional 10 frames collected with the crystal on a 45° jig (Molecular Structure Corporation) for completeness. The total decay in X-ray intensities during collection of each of these four dark data sets was less than 5% of the initial structure average factor amplitudes.
Crystals that were soaked in caged 1 or 3 in the absence of isocitrate were each irradiated after the dark data collection, using a two minute exposure with a Cole Parmer 9741-50 quartz halogen light source with a 9741-03 high intensity 150 watt bulb and dual fiber optic light pipes and focusing lenses. […]

[3] = target: T1, IDH, isocitrate dehydrogenase (Escherichia coli); test: Turnover check by absorbance analysis of dissolved IDH crystals after extensive soaks; assay type: biochemical; settings: crystals soaked in presence of bound isocitrate/Mg+2
From the text: The nicotinamide ring, its ribose sugar, and the first backbone phosphate are all completely disordered. […] The presence of the caging group on the carboxyamide nitrogen sterically prevents hydride transfer. […] After photolysis in the absence of isocitrate, liberated NADP 1002 is still bound to the active site as previously determined for unmodified NADP, as shown in FIG. C. The clear advantage of this compound as a photolytic trigger for time-resolved studies is that it is bound to the enzyme active site prior to photolysis, so that no additional diffusion or binding events are necessary to form the Michaelis complex.

[4] = 10 mM DTT, monitored at 418 nm, double exponential fit
[5] = absence of bound isocitrate/Mg+2, dark
[6] = presence of bound isocitrate/Mg+2, dark

T1 sequence (P08200 whole entry): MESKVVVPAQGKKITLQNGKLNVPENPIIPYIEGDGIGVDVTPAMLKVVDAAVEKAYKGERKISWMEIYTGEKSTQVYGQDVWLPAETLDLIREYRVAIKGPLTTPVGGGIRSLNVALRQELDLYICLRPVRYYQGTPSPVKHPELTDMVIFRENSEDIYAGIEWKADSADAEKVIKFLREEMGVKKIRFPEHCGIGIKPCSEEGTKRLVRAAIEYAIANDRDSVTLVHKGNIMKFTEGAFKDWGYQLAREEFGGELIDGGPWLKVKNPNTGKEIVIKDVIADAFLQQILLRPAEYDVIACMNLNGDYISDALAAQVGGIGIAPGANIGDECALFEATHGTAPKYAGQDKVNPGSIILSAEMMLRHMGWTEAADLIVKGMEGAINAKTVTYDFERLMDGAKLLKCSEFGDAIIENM

Compound | aci-nitro transient decay rate, fast component [1, 4] [s⁻¹] | aci-nitro transient decay rate, slow component [1, 4] [s⁻¹] | aci-nitro transient decay rate, fast component ([1]; 100 mM DTT, 418 nm) [s⁻¹] | aci-nitro transient decay rate, slow component ([1]; 100 mM DTT, 418 nm) [s⁻¹] | binding to IDH active site before photolysis [2, 5] | binding to IDH active site before photolysis [2, 6] | IDH turnover with caged cofactor before photolysis [3] | first-order decay rate k of transient (rate of photorelease) ([1]; 50 mM phosphate buffer, pH 7.0) [s⁻¹] | rate of photorelease ([1]; sample pH 6) [s⁻¹] | fast decay component ([1]; DTT concentration not stated) [s⁻¹]
COc1cc(C(C)OP(=O)(O)O[C@@H]2[C@H](O)[C@@H](COP(=O)(O)OP(=O)([O-])OC[C@H]3O[C@@H]([n+]4cccc(C(N)=O)c4)[C@H](O)[C@@H]3O)O[C@H]2n2cnc3c(N)ncnc32)c([N+](=O)[O-])cc1OC (stereo partly drawn) [compound 1, P^2' -[1-(4,5-Dimethoxy-2-nitrophenyl)ethyl]nicotinamide adenine dinucleotide phosphate] | 13000 | 93 | 18000 | 480 | fails to bind | fails to bind |  |  |  | 
Nc1ncnc2c1ncn2[C@@H]1O[C@H](COP(=O)(O)OP(=O)([O-])OC[C@H]2O[C@@H]([n+]3cccc(C(=O)NC(C(=O)O)c4ccccc4[N+](=O)[O-])c3)[C@H](O)[C@@H]2O)[C@@H](O)[C@H]1OP(=O)(O)O (stereo partly drawn) [compound 3, N-(α-Carboxy-2-nitrobenzyl)-nicotinamide adenine dinucleotide phosphate] |  |  |  |  | binds to the enzyme | both backbone phosphates of the caged cofactor are well ordered | turnover does not occur | 30 | 42 | 
P-[1-(4,5-Dimethoxy-2-nitrophenyl)ethyl] nicotinamide adenine dinucleotide [compound 2] |  |  |  |  |  |  |  |  |  | 17000
